Source: patent publication EP1683799A1, “3-Amino-6-aryl(or 6-heteroaryl)-4-R²-thieno[2,3-b]pyridin-2-carboxylic acid amides, pharmaceutical compositions comprising the said and their use as inhibitors of TNFalpha release” (IBFB Pharma GmbH, priority 2005, dated 2006)

Tested on: TNFα-Freisetzung
Assay: Inhibition of TNFα release after LPS stimulation of human whole blood (ELISA)
Assay type: cell-based
Details: human whole blood diluted 1:5 with RPMI 1640; LPS (Salmonella abortus equi) 1 µg/ml; 24 h at 37°C; TNFα in supernatant by ELISA; read-out: EC50 Hemmung der TNFα-Freisetzung
Excerpt: Methodenbeschreibung der Hemmung der TNFα Freisetzung nach LPS Stimulation von humanem Vollblut
Die Stimulierung isolierter Leukozyten für die Freisetzung von Zytokinen kann auf verschiedenen Wegen erfolgen. Lipopolysaccharide (LPS) stellen einen Stimulus für die Untersuchung der Freisetzung von TNFα dar. LPS ist Bestandteil bakterieller Zellwände und wird beim Abtöten der Bakterien (durch Antibiotika oder das natürliche Immunsystem) freigesetzt. LPS stimuliert insbesondere die Aktivität phagozytierender Leukozyten (Gewebsmakrophagen, Granulozyten, Monozyten) und verursacht die Infiltration von Leukozyten vom peripheren Blut in das betroffene Gewebe. Ein Zytokin von besonderer Bedeutung für diese Mechanismen ist TNFα, das in großen Mengen durch die betroffenen Zellen sezemiert wird. Hauptquelle dabei sind Monozyten und Makrophagen. TNFα initiiert und prolongiert den Entzündungsprozess im Zusammenspiel mit anderen Mediatoren.
Für die Untersuchung des Effektes auf die LPS-induzierte TNFα-Freisetzung wurde eine Methode verwendet, die von MARX et al. (Marx D, Tassabehji M, Heer S, Hüttenbrink KB, Szelenyi I (2002) Pulmonary Pharmacology & Therapeutics 15 7-15) beschrieben wurde. Die Methodenbeschreibung in verkürzter Darstellung: Humanes Blut verschiedener Spendern wird durch Zusatz von 10 mM Na-Citrat ungerinnbar gemacht und 1:5 mit RPMI 1640 Zellkulturmedium verdünnt. Die Verbindungen der allgemeinen Formel 1 sowie die Kontrollsubstanzen (z.B. Dexamethason) wurden den Blutproben in verschiedenen Konzentrationen hinzugefügt. 15 Minuten später wurden die Leukozyten durch Zusatz von Lipopolysacchariden (LPS) (aus Salmonella abortus equi) in einer Endkonzentration von 1 µg/ml stimuliert. Nach Inkubation der Testansätze für 24 Stunden bei 37°C. und unter 5% CO2 in wassergesättigter Luft, wurde das Blut zentrifugiert und die Konzentration an TNFα im zellfreien Überstand unter Verwendung eines käuflichen ELISA (BD Biosciences) nach Angaben des Herstellers exakt vermessen.

EC50 [nM]	Structure (SMILES)
< 1	NC(=O)c1sc2nc(-c3ccc4c(c3)OCCO4)cc(C(F)(F)F)c2c1N [3-Amino-6-(3,4-dioxoethylen-phenyl)-4-trifluormethyl-thieno[2,3-b]pyridin-2-carbonsäureamid]
< 1	CSc1ccc(-c2cc(C(F)(F)F)c3c(N)c(C(N)=O)sc3n2)cc1 [3-Amino-6-(4-methylthio-phenyl)-4-trifluormethyl-thieno[2,3-b]pyridin-2-carbonsäureamid]
< 1	Cc1ccc(-c2cc(C(F)F)c3c(N)c(C(N)=O)sc3n2)cc1 [Beispiel 1, 3-Amino-4-difluormethyl-6-(4-methyl-phenyl)thieno[2,3-b]pyridin-2-carbonsäureamid]
< 1	NC(=O)c1sc2nc(-c3cccs3)cc(C(F)(F)F)c2c1N [Beispiel 2, 3-Amino-6-(2-thienyl)-4-trifluormethyl-thieno[2,3-b]pyridin-2-carbonsäureamid]
< 1	NC(=O)c1sc2nc(-c3ccc4ccccc4c3)cc(C(F)(F)F)c2c1N [Beispiel 5, 3-Amino-6-(2-naphthyl)-4-trifluormethyl-thieno[2,3-b]pyridin-2-carbonsäureamid]
< 1	NC(=O)c1sc2nc(-c3ccccc3)cc(C(F)(F)F)c2c1N [Beispiel 6, 3-Amino-6-phenyl-4-trifluormethyl-thieno[2,3-b]pyridin-2-carbonsäureamid]
< 1	Cc1ccc(-c2cc(C(F)(F)F)c3c(N)c(C(N)=O)sc3n2)cc1 [Beispiel 7, 3-Amino-6-(4-methyl-phenyl)-4-trifluormethyl-thieno[2,3-b]pyridin-2-carbonsäureamid]
< 1	CCc1ccc(-c2cc(C(F)(F)F)c3c(N)c(C(N)=O)sc3n2)cc1 [Beispiel 8, 3-Amino-6-(4-ethyl-phenyl)-4-trifluormethyl-thieno[2,3-b]pyridin-2-carbonsäureamid]
< 1	CCCc1ccc(-c2cc(C(F)(F)F)c3c(N)c(C(N)=O)sc3n2)cc1 [Beispiel 9, 3-Amino-6-(4-propyl-phenyl)-4-trifluormethyl-thieno[2,3-b]pyridin-2-carbonsäureamid]
< 1	CC(C)c1ccc(-c2cc(C(F)(F)F)c3c(N)c(C(N)=O)sc3n2)cc1 [Beispiel 10, 3-Amino-6-(4-isopropyl-phenyl)-4-trifluormethyl-thieno[2,3-b]pyridin-2-carbonsäureamid]
< 1	COc1ccc(-c2cc(C(F)(F)F)c3c(N)c(C(N)=O)sc3n2)cc1 [Beispiel 12, 3-Amino-6-(4-methoxy-phenyl)-4-trifluormethyl-thieno[2,3-b]pyridin-2-carbonsäureamid]
< 1	CCOc1ccc(-c2cc(C(F)(F)F)c3c(N)c(C(N)=O)sc3n2)cc1 [Beispiel 13, 3-Amino-6-(4-ethoxy-phenyl)-4-trifluormethyl-thieno[2,3-b]pyridin-2-carbonsäureamid]
< 1	NC(=O)c1sc2nc(-c3ccc(Cl)cc3)cc(C(F)(F)F)c2c1N [Beispiel 14, 3-Amino-6-(4-chlor-phenyl)-4-trifluormethyl-thieno[2,3-b]pyridin-2-carbonsäureamid]
< 1	NC(=O)c1sc2nc(-c3ccc(Br)cc3)cc(C(F)(F)F)c2c1N [Beispiel 15, 3-Amino-6-(4-brom-phenyl)-4-trifluormethyl-thieno[2,3-b]pyridin-2-carbonsäureamid]
< 1	Cc1ccc(-c2cc(C(F)(F)F)c3c(N)c(C(N)=O)sc3n2)cc1C [Beispiel 16, 3-Amino-6-(3,4-dimethyl-phenyl)-4-trifluormethyl-thieno[2,3-b]pyridin-2-carbonsäureamid]
< 1	NC(=O)c1sc2nc(-c3ccc4c(c3)OCO4)cc(C(F)(F)F)c2c1N [Beispiel 18, 3-Amino-6-(3,4-dioxomethylen-phenyl)-4-trifluormethyl-thieno[2,3-b]pyridin-2-carbonsäureamid]
< 1	NC(=O)c1sc2nc(-c3ccc(F)cc3)cc(C(F)(F)F)c2c1N [Beispiel 22, 3-Amino-6-(4-fluor-phenyl)-4-trifluormethyl-thieno[2,3-b]pyridin-2-carbonsäureamid]
